In patent US11014934B2, “Antiseptic drug” (AO “TATKHIMFARMPREPARATY”, priority 2017, dated 2021):
Like-named read-outs stand apart in the source and are kept apart here.

Key:
Type in all cases: cell-based
[1] = test system: gram-positive microorganisms in the biofilm; assay: Antibacterial activity against cells immersed in a biofilm matrix (CFU, drop plate)
Experimental: To determine the effectiveness of the antibiotic against bacteria in […], bacteria were grown in Basal medium for 3 days at a temperature of 37° C. without swinging to obtain a dense biofilm [A. R Kayumov, Khakimullina E., Sharafutdinov I, Trizna E., Latypova L., Lien Thi, Margulis A., Bogachev M, Kurbangalieva A. Inhibition of biofilm formation in Bacillus subtilis by new halogenated furanoses. J. Antibiotics.—2014.—V. 68.—No 5.—P. 297-301.]. Then the biofilm was washed with a sterile 0.9% NaCl solution and fresh sterile medium was poured. Antiseptics were added to concentrations (1-16)×MBC (minimum bactericidal concentration) and incubated for 24 hours. Then the culture fluid was removed from the wells, washed once with 0.9% NaCl solution to remove non-adherent cells, and cell viability in biofilms was evaluated by counting CFU by Drop plate analysis [B. Herigstad, M Hamilton, J. Heersink How to optimize the drop plate method for enumerating bacteria. J Microbiol Methods.—2001.—V. 44.—P. 121-129]. To do this, the biofilm was mechanically removed from the surface and homogenized in 0.9% NaCl by pipetting and ultrasonic treatment. Then, serial 10-fold dilutions of the bacterial suspension in 0.9% NaCl were prepared, and 5 μI of each suspension were transferred to plates with dense nutrient medium. CFU was counted from drops containing 5-10 colonies.
The results of the study of antimicrobial activity against cells of the studied strains immersed in the biofilm matrix, in comparison with miramistin and benzalkonium chloride, are presented in FIGS. 1 and 2.

all bacterial strains = assay: MIC screening, summary for all bacterial strains
Experimental: A comparative assessment of the spectrum of antibacterial action was carried out on archival and clinical strains of gram-positive and gram-negative microorganisms in accordance with the [Opredeleniye chuvstvitel'nosti mikroorganizmov k antibakterial'nym preparatam (Metodicheskiye ukazaniya MUK 4.2.1890-04). Utverzhdeny i vvedeny v deystviye Glavnym gosudarstvennym sanitarnym vrachom Rossiyskoy Federatsii G. G. Onishchenko 04.03.2004 g. Determination of the sensitivity of microorganisms to antibacterial drugs (Guidelines MUK 4.2.1890-04). Approved and put into effect by the Chief State Sanitary Doctor of the Russian Federation G. G. Onishchenko on 4 Mar. 2004].
The value of the minimum inhibitory concentration (MIC) was determined by the method of serial dilutions on Müller-Hinton broth using 96-well sterile plates. […] The growth of cultures was assessed visually, comparing the growth of microorganisms in the presence of test compounds with the growth of culture without them. […] The first lowest concentration of the studied substance (from a series of consecutive dilutions), where bacterial growth is not visually determined, is considered to be the minimum inhibitory concentration (MIC). MIC was determined by the method of serial dilutions in broth with increment=2, so the differences of neighboring dilutions are not considered to be significant. […]

Asp. fumigates = assay: Sensitivity of microscopic fungi in solution (colonies after exposure)
Experimental: (§1) For the preparation of inoculum, were respectively used pure (2-5) days cultures of yeast and mycelial fungi, grown on Saburo's dense nutrient broth. Inoculum for plating was prepared in different ways, depending on the type of fungi. Thus, yeast crops (C. albicans) were prepared by washing the culture from an agar stroke. Cultures of mycelial fungi (Rh. oryzae, Asp. fumigatus) were pre-degraded in a pounder. A suspension of microorganisms was prepared in a sterile isotonic sodium chloride solution, bringing the inoculum density to 5 UNITS (GISK [State Research Institute of Standardization and Control] named after L. A. Tarasevich) or according to the McFarland standard 1 UNIT with a concentration of at least 1×10^6 CFU/ml, considering that the size of the fungal elements is approximately 10 times the size of bacteria (this provided the possibility of creating a mixture of biocide with suspension, the concentration of microorganisms of the order of 1×10^5 CFU/ml).
(§2) Solutions of compound I, miramistin, and benzalkonium chloride in working concentrations (0.1%, 0.2%, 0.3%) were poured into sterile 0.9 ml tubes. 0.1 ml of microbial suspension was added to test tubes with disinfectant solutions and mixed by shaking for several seconds. The exposition lasted for 1, 5, and 15 minutes. After required temporary exposure for action of the disinfectant, 0.5 ml of the neutralizer solution was added and mixed by shaking.
(§3) Then, 0.1 ml of the mixture was inoculated on a dense nutrient medium and the plates with inoculate were placed in a thermostat with a temperature of 27° C. for (2-4) days for yeast and (5-7) days for mycelial fungi, respectively.
(§4) After the time required for the cultivation of microorganisms of this species, the results were counted according to the number of colonies grown on the Petri dish. In the absence of growth, the time for culturing microorganisms was increased by a factor of 2. The grown colonies were subjected to microscopy.
(§5) The tested substances were studied on clinical and archival strains of yeast and mycelial fungi. As comparison drugs, drugs commonly used in clinical practice were used: miramistin and benzalconium chloride. After the required exposure time for action of the disinfectant, a series of 0.1 ml mixture was aseptically plated on the surface of a dense nutrient medium in Petri dishes. After the time of cultivation of microorganisms, the results were counted according to the number of colonies grown on the Petri dish.

C. albicans = assay: as above
Experimental: as §1, §2, §3, §4, §5

CCCCCCCCCCCCCC(=O)NCCC[N+](C)(C)Cc1ccccc1.O.[Cl-] [Miramistin, benzyldimethyl [3-(myristoylamino)propyl]-ammonium chloride monohydrate]
less active than benzalkonium chloride [1]: 2 times | MIC (all bacterial strains; all bacterial strains, read-out: MIC89): < 64 µg/mL | Number of colonies grown in a Petri dish (Asp. fumigates; exposure 1 min, 0.1% solution): 20 | Number of colonies grown in a Petri dish (Asp. fumigates; exposure 1 min, 0.2% solution): 10 | Number of colonies grown in a Petri dish (Asp. fumigates; exposure 5 min, 0.1% solution): 12 | Number of colonies grown in a Petri dish (Asp. fumigates; exposure 15 min, 0.1% solution): 2 | Number of colonies grown in a Petri dish (C. albicans; exposure 1 min, 0.1% solution): 12 | Number of colonies grown in a Petri dish (C. albicans; exposure 1 min, 0.2% solution): 5 | Number of colonies grown in a Petri dish (C. albicans; exposure 5 min, 0.1% solution): 7

CCCCCCCCCCCC[N+](C)(C)Cc1cnc(C[N+](C)(C)CCCCCCCCCCCC)c2c1COC(CC)O2 (centres unmarked) [Compound I, 5,8-(Bis(methylene (N, N-dimethyl-N-dodecylammonium))-2-ethyl-4H-[1,3]dioxino [4,5-c]pyridiniumdichloride]
higher activity compared to miramistin and benzalkonium chloride ([1]; same decrease of CFU at lower excess of MBC): 2 fold | MIC (all bacterial strains; read-out: MIC100): < 64 µg/mL | Number of colonies grown in a Petri dish (Asp. fumigates; exposure 5 min, 0.1% solution): 1 | Number of colonies grown in a Petri dish (C. albicans; exposure 1 min, 0.1% solution): 3 | Number of colonies grown in a Petri dish (C. albicans; exposure 5 min, 0.1% solution): 1
